Experimental data: US20230257396A1, “MACROCYCLES AND THEIR USE” (BLOSSOMHILL THERAPEUTICS, INC., priority 2020, published 2023)
Substitutions are numbered along the chain they refer to.

Assays:
Assay in all cases: KINOMEscan kinase binding assay (Eurofins/DiscoveRx), % Ctrl
kinases [1] = biological target: T1, kinases (Homo sapiens, UniProt P36888, D835Y)
T1 construct: purchased Eurofins/DiscoveRx; host or cells: E. coli BL21-derived host (T7 phage display) for most kinases; HEK-293 for the rest
T1 sequence (P36888 27-993 D835Y): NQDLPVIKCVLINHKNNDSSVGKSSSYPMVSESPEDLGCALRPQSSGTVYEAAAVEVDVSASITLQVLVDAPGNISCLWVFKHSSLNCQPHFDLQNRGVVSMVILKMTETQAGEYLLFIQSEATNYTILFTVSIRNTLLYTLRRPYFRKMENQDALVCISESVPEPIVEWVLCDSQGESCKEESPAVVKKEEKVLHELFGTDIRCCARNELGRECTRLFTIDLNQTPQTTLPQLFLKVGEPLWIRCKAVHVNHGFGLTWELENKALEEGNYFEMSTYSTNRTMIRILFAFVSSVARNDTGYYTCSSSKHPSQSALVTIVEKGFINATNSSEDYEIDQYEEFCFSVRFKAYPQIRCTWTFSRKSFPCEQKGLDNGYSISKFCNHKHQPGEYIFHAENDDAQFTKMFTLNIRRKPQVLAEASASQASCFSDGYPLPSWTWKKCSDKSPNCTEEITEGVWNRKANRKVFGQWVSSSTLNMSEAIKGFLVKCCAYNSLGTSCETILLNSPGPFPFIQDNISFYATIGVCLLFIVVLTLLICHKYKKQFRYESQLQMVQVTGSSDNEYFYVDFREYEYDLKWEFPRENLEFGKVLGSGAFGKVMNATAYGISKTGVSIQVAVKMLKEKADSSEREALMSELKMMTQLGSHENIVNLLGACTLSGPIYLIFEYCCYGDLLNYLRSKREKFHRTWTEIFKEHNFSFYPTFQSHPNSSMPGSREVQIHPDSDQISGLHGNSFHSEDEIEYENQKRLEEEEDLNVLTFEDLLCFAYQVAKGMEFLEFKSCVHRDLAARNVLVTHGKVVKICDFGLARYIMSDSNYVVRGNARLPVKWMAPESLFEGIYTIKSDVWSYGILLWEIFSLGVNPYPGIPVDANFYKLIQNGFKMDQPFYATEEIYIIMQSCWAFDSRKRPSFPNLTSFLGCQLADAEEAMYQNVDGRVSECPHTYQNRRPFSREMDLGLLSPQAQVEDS
Outline: (§1)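 Competition binding: DNA- or phage-tagged kinases (T7 phage in E. coli BL21, or HEK-293-expressed) with immobilized biotinylated ligand beads and test compound, 1 h at room temperature. Bead-bound kinase eluted and quantified by qPCR; % Ctrl = (compound − positive control)/(negative control − positive control) ×100 at a single compound concentration.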

kinases [2] = biological target: T2, kinases (Homo sapiens, UniProt P36888, R834Q)
T2 construct: purchased Eurofins/DiscoveRx; host or cells: E. coli BL21-derived host (T7 phage display) for most kinases; HEK-293 for the rest
T2 sequence (P36888 27-993 R834Q): T1 sequence (P36888 27-993 D835Y) with R808Q, Y809D
Outline: as §1

kinases [3] = biological target: T3, kinases (Homo sapiens, UniProt P07949, V804M)
T3 construct: purchased Eurofins/DiscoveRx; host or cells: E. coli BL21-derived host (T7 phage display) for most kinases; HEK-293 for the rest
Outline: as §1

kinases [4] = biological target: T4, kinases (Homo sapiens, UniProt P00533, DEL746-750)
T4 construct: purchased Eurofins/DiscoveRx; host or cells: E. coli BL21-derived host (T7 phage display) for most kinases; HEK-293 for the rest
Outline: as §1

kinases [5] = system: kinases
Outline: as §1

[6] = 1 μM; EGFR(L747-E749del, A750P)
[7] = 1 μM; EGFR(L747-S752del, P753S)

T3 sequence (P07949 29-1114 V804M): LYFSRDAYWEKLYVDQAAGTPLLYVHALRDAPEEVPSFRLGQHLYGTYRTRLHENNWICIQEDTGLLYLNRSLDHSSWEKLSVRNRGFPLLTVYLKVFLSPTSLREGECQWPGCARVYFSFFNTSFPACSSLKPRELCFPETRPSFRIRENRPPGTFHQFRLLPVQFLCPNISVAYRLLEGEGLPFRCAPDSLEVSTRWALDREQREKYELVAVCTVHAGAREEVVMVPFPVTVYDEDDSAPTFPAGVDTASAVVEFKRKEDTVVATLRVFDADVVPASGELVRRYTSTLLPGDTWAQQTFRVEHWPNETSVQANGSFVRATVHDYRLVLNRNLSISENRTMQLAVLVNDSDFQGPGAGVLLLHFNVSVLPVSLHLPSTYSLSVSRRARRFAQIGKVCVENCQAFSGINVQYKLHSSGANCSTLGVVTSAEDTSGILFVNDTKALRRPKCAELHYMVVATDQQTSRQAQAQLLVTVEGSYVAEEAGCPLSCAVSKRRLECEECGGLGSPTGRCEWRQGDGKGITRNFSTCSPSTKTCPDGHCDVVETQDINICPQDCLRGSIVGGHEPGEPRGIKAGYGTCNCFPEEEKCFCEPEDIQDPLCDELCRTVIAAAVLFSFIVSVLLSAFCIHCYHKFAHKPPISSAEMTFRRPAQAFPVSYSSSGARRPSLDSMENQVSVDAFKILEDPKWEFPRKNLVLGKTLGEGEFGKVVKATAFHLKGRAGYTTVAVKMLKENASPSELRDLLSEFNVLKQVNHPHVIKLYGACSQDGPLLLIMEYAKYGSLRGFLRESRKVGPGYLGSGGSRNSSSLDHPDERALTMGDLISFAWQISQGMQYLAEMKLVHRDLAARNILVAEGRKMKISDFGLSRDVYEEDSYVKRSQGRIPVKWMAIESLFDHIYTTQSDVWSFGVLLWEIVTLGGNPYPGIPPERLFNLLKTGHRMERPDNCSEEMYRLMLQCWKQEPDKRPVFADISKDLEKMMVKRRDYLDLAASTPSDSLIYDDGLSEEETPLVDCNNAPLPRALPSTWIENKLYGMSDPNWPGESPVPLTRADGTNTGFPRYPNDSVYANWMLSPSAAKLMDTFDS

% Ctrl, FLT3(D835Y) (kinases [1]; 1 μM; FLT3(D835Y)) [% Ctrl]	% Ctrl, FLT3(R834Q) (kinases [2]; 1 μM; FLT3(R834Q)) [% Ctrl]	% Ctrl, RET(V804M) (kinases [3]; 1 μM; RET(V804M)) [% Ctrl]	% Ctrl, EGFR(E746-A750del) (kinases [4]; 1 μM; EGFR(E746-A750del)) [% Ctrl]	% Ctrl, EGFR(L747-E749del, A750P) (kinases [5]; [6]) [% Ctrl]	% Ctrl, EGFR(L747-S752del, P753S) (kinases [5]; [7]) [% Ctrl]	% Ctrl, EGFR(L747-T751del, Sins) (kinases [5]; 1 μM; EGFR(L747-T751del, Sins)) [% Ctrl]	% Ctrl, FLT3(ITD) (kinases [5]; 1 μM; FLT3(ITD)) [% Ctrl]	% Ctrl, FLT3(ITD, D835V) (kinases [5]; 1 μM; FLT3(ITD, D835V)) [% Ctrl]	% Ctrl, FLT3(ITD, F691L) (kinases [5]; 1 μM; FLT3(ITD, F691L)) [% Ctrl]	also measured	SMILES
9.1	39	51	92	83	100	59	6.9	0.45	5.8		Cc1cc2c([nH]1)/C=C1\C(=O)Nc3ccc(cc31)CN(C)C(=O)COCCNC2=O [Ex.111, [17a(18)Z]-2,11-dimethyl-6,7,11,12-tetrahydro-1H-13,15-(ethanediylidene)dipyrrolo[3,2-f:3′,4′-i][1,4,14]oxadiazacyclohexadecine-4,10,17(5H,9H,16H)-trione]
										% Ctrl, FLT3(D835Y) (kinases [1]; target FLT3(D835Y); 1 μM): 22 % Ctrl; % Ctrl, FLT3(R834Q) (kinases [2]; target FLT3(R834Q); 1 μM): 97 % Ctrl; % Ctrl, RET(V804M) (kinases [3]; target RET(V804M); 1 μM): 12 % Ctrl; % Ctrl, EGFR(E746-A750del) (kinases [4]; target EGFR(E746-A750del); 1 μM): 73 % Ctrl; % Ctrl, EGFR(L747-E749del, A750P) (kinases [5]; target EGFR(L747-E749del, A750P); 1 μM): 38 % Ctrl; % Ctrl, EGFR(L747-S752del, P753S) (kinases [5]; target EGFR(L747-S752del, P753S); 1 μM): 60 % Ctrl; % Ctrl, EGFR(L747-T751del, Sins) (kinases [5]; target EGFR(L747-T751del, Sins); 1 μM): 77 % Ctrl; % Ctrl, FLT3(ITD) (kinases [5]; target FLT3(ITD); 1 μM): 4.7 % Ctrl; % Ctrl, FLT3(ITD, D835V) (kinases [5]; target FLT3(ITD, D835V); 1 μM): 0.3 % Ctrl; % Ctrl, FLT3(ITD, F691L) (kinases [5]; target FLT3(ITD, F691L); 1 μM): 3.2 % Ctrl	Cc1cc2c([nH]1)/C=C1\C(=O)Nc3ccc(cc31)-c1c(C)nn(C)c1COCCN(C)C2=O [Ex. 146, [3a(4)Z]-6,9,14,16-tetramethyl-10,11,13,14-tetrahydro-2H-1,17-(ethanediylidene)pyrazolo[4,3-m]dipyrrolo[3,2-f:3′,4′-i][1,4]oxazacyclopentadecine-3,8(5H,9H)-dione]
94	100	89	100	92	100	67	91	100	100		Cc1cc2c([nH]1)/C=C1\C(=O)Nc3cnc(nc31)N(C)CCCOCCN(C)C2=O [Ex.71, [17a(18)Z]-2,5,12-trimethyl-6,7,9,10,11,12-hexahydro-1H-13,15-(azenometheno)dipyrrolo[3,2-f:3′,4′-i][1,4,11,13]oxatriazacyclohexadecine-4,17(5H,16H)-dione]
0.25	29	4	93	100	94	68	2.1	0	0		Cc1cc2c([nH]1)/C=C1\C(=O)Nc3ccc(cc31)OCCOCCN(C)C2=O [Ex.91, [16a(17)Z]-2,5-dimethyl-6,7,9,10-tetrahydro-1H-12,14-(ethanediylidene)dipyrrolo[3,2-i:3′,4′-l][1,4,7]dioxazacyclopentadecine-4,16(5H,15H)-dione]
										% Ctrl, FLT3(D835Y) (kinases [1]; 1 μM; target FLT3(D835Y)): 1.9 % Ctrl; % Ctrl, FLT3(R834Q) (kinases [2]; 1 μM; target FLT3(R834Q)): 2.1 % Ctrl; % Ctrl, RET(V804M) (kinases [3]; 1 μM; target RET(V804M)): 0.1 % Ctrl; % Ctrl, EGFR(E746-A750del) (kinases [4]; 1 μM; target EGFR(E746-A750del)): 84 % Ctrl; % Ctrl, EGFR(L747-E749del, A750P) (kinases [5]; 1 μM; target EGFR(L747-E749del, A750P)): 62 % Ctrl; % Ctrl, EGFR(L747-S752del, P753S) (kinases [5]; 1 μM; target EGFR(L747-S752del, P753S)): 98 % Ctrl; % Ctrl, EGFR(L747-T751del, Sins) (kinases [5]; 1 μM; target EGFR(L747-T751del, Sins)): 90 % Ctrl; % Ctrl, FLT3(ITD) (kinases [5]; 1 μM; target FLT3(ITD)): 0.3 % Ctrl; % Ctrl, FLT3(ITD, D835V) (kinases [5]; 1 μM; target FLT3(ITD, D835V)): 0.6 % Ctrl; % Ctrl, FLT3(ITD, F691L) (kinases [5]; 1 μM; target FLT3(ITD, F691L)): 0 % Ctrl	Cc1cc2c([nH]1)/C=C1\C(=O)Nc3ccc(cc31)-c1cnn(C)c1OCCCN(C)C2=O [Ex. 166, [3a(4)Z]-9,14-dimethyl-9,10,11,12-tetrahydro-14H-1,17-(ethanediylidene)pyrazolo[4,3-n]dipyrrolo[3,2-g:3′,4′-j][1,5]oxazacyclopentadecine-3,8(2H,5H)-dione]
1.4	13	1.6	13	26	40	43	2.2	0	6.2		Cc1cc2c([nH]1)/C=C1\C(=O)Nc3ccc(cc31)-c1c(C)n[nH]c1CNCCN(C)C2=O [Ex. 127, [3a(4)Z]-6,9,16-trimethyl-9,10,11,12,13,14-hexahydro-1,17-(ethanediylidene)pyrazolo[4,3-m]dipyrrolo[3,2-f:3′,4′-i][1,4]diazacyclopentadecine-3,8(2H,5H)-dione]
9.1	84	94	100	88	98	85	32	4.3	40		Cc1cc2c([nH]1)/C=C1\C(=O)Nc3ccc(cc31)OCCOCCNC2=O [Ex. 129, [16a(17)Z]-2-methyl-6,7,9,10-tetrahydro-1H-12,14-(ethanediylidene)dipyrrolo[3,2-i:3′,4′-l][1,4,7]dioxazacyclopentadecine-4,16(5H,15H)-dione]
